The target of one experiment is ZmADK3 D19A variant (Zea mays, UniProt A0A1D6E5Z5, D19A). The experiment in a line: Binding affinity by MST. The conditions noted are these: D19A; MST; read-out: KD ATP. The protocol: (§1) All ZmADK3 mutants were cloned by 30 cycle PCRs using tail-to-tail oriented phosphorylated primers, with the mutation being located at the 5′ end of one of the primers. The following mutants were cloned using the primers given in Supplementary Table S1: D19A, R132A, N222A, E225A, N295A, and D299A. The products were treated with DpnI restriction enzyme, gel purified, and ligated using T4 DNA ligase (www.thermofisher.com). Clones were transformed into T7 express I^qE. coli competent cells.
Chain of ZmADK3 D19A variant (A0A1D6E5Z5 entry or part of it D19A): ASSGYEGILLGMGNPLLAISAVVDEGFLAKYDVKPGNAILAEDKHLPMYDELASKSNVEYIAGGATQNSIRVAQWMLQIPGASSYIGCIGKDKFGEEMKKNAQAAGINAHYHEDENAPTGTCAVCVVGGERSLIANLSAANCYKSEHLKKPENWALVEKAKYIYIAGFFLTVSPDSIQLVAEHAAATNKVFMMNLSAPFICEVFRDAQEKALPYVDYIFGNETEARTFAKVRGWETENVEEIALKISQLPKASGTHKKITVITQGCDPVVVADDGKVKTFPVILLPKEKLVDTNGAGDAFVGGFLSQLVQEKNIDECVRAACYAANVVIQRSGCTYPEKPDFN
(§2) The microscale thermophoresis (MST) method was used to determine the binding affinity of various ribosides for ZmADK2 and PpADK1. Proteins were fluorescently labeled with RED-tris-NTA dye (www.nanotemper-technologies.com) using a 1:1 dye/protein molar ratio. The labeled protein was adjusted to 100–300 nM in 50 mM HEPES buffer pH 7.5, 1 mM MgCl2, and 0.2% Tween. Measurements were performed in premium capillaries on a Monolith NT.115 instrument at 30 °C with 5 s/30 s/5 s laser off/on/off times, respectively, with continuous sample fluorescence recording. Thermal stability was measured by nano-differential scanning fluorimetry on a Prometheus NT.48 instrument (www.nanotemper-technologies.com) in various buffers covering a pH (7.0–9.5) and temperature range (25–95 °C), with a heating rate of 1 °C min^–1, and using NT melting control software. Protein unfolding was measured by detecting the temperature-induced change in tryptophan fluorescence intensity at emission wavelengths of 330±5 nm and 350±5 nm. The melting temperature (Tm) was deduced from the maximum of the first derivative of the fluorescence ratios F350/F330.

A further experiment deals with ZmADK3 N295A variant (Zea mays, UniProt A0A1D6E5Z5, N295A). The experiment in a line: Binding affinity by MST. The conditions noted are these: N295A; MST; read-out: KD ATP. As to the method:
as §1, §2

Another experiment addresses ZmADK3 N222A variant (Zea mays, UniProt A0A1D6E5Z5, N222A). The experiment in a line: Binding affinity by MST. The protocol: as §1, §2
The target in the next experiment is ZmADK3 D299A variant (Zea mays, UniProt A0A1D6E5Z5, D299A). The experiment in a line: Binding affinity by MST. The conditions noted are these: D299A; MST; read-out: KD ATP. The protocol: as §1, §2
Chain of ZmADK3 D299A variant (A0A1D6E5Z5 entry or part of it D299A): as the sequence (A0A1D6E5Z5 entry or part of it D19A) above, with A18D, D298A counted along it
The target in a further experiment is ZmADK3 E225A variant (Zea mays, UniProt A0A1D6E5Z5, E225A). The experiment in a line: Binding affinity by MST. As to the method: as §1, §2
Chain of ZmADK3 E225A variant (A0A1D6E5Z5 entry or part of it E225A): as the sequence (A0A1D6E5Z5 entry or part of it D19A) above, with A18D, E224A counted along it
The next experiment has as its target ZmADK3 R132A variant (Zea mays, UniProt A0A1D6E5Z5, R132A). Nature of the experiment: Binding affinity by MST. The conditions noted are these: R132A; MST; read-out: KD ATP. As to the method:
as §1, §2

Experiment [1] addresses T1, ZmADK2 (Zea mays, UniProt B4FFH8, T4S). The experiment in a line: Binding affinity by microscale thermophoresis (MST). The conditions noted are these: MST, 50 mM HEPES pH 7.5, 1 mM MgCl2, first or only binding event. As to the method:
as §2
On the technique in general: MST reads how a fluorescent partner responds to local heating, with and without ligand.

The test system of experiment [2] is plant ADKs from lupin and Arabidopsis. Also noted: method as in Guranowski, 1979; Moffatt et al., 2000. The settings on record: ref Guranowski, 1979, Moffatt et al., 2000, read-out: Km for ATP; cited from earlier work.
For experiment [3], the target named is T2, PpADK1 (Physcomitrium patens, UniProt O49923).
T2 construct: made in house; host or cells: E. coli T7 Express Iq
T2 sequence (O49923 whole entry): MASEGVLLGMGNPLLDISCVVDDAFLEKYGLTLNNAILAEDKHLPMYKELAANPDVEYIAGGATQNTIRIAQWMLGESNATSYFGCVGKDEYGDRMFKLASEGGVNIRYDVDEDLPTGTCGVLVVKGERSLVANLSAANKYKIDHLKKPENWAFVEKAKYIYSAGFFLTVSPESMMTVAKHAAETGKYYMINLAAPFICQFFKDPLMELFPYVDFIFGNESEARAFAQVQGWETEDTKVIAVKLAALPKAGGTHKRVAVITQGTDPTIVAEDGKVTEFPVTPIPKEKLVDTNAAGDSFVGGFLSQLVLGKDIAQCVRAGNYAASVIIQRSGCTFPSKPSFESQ
Nature of the experiment: Binding affinity by microscale thermophoresis (MST). Also noted: species or system Physcomitrella patens. As to the method:
as §2

A further experiment concerns the target WT ZmADK3 (Zea mays, UniProt A0A1D6E5Z5). The experiment in a line: Binding affinity by MST. The conditions noted are these: read-out: KD ATP.
A further experiment has as its system five plant ADKs. Nature of the experiment: Thermal stability by nanoDSF. Also noted: species or system Zea mays, Physcomitrella patens. The settings on record: all isoforms, ATP complexes at 4 mM. As to the method:
as §2
Supplementary Fig. S1. Thermal stability, molecular and kinetic properties of ZmADK2. (A)
Thermal stability of five plant ADKs measured by nanoDSF. The curves for apoforms (in 150 mM
HEPES pH 7.2, 100 mM NaCl, 10 mM MgCl2) and ATP complexes at 4 mM concentrations are shown. […]

The subject of another experiment is all five ADKs. Nature of the experiment: ADK kinetics, coupled reaction (summary for all isoforms). The settings on record: range over all five ADKs. Type of experiment: biochemical, Zea mays, Physcomitrella patens. The protocol:
Substrate analogs were purchased from Sigma-Aldrich (www.sigmaaldrich.com). The ADK activity was measured spectrophotometrically on an Agilent 8453 UV-Vis spectrophotometer (www.agilent.com) at 30 °C using a coupled reaction with pyruvate kinase (PK) and lactate dehydrogenase (LDH) (www.sigmaaldrich.com) ([Blondin et al., 1994]). In this assay, PK converts ADP produced by ADK and phosphoenolpyruvate (PEP) to pyruvate. Subsequently, LDH then converts pyruvate to lactate using the coenzyme NADH, with the conversion monitored at 340 nm. The reaction was conducted in 50 mM Tris–HCl buffer at pH 7.5, containing 50 mM KCl, 6 mM MgCl2, 300 µM PEP, 200 µM NADH, 10 mM ATP, 2 U of PK, and 2.5 U of LDH, using various nucleoside substrates. Kinetic constants were determined using GraphPad Prism 8.0 software (www.graphpad.com). Each measurement was performed six times using repetitive purified enzymes. The activities of all five ADKs were also measured by HPLC ([Moffatt et al., 1991]). The reaction mixture comprised 50 mM Tris–HCl pH 7.5, 5 mM MgCl2, 0.5 mM DTT, 30 mM NaF, 5 mM ATP, 40 µM substrate, and 2–150 ng of purified ADK, depending on the isoform. The reaction was incubated at 30 °C for up to 1 h. […]

The target in a further experiment is ZmADK3 (Zea mays, UniProt A0A1D6E5Z5). Nature of the experiment: ADK activity, coupled reaction with PK and LDH. The class given is biochemical. The settings on record: ZmADK3, 10 mM ATP, pH 7.5, 30 °C. As to the method: Substrate analogs were purchased from Sigma-Aldrich (www.sigmaaldrich.com). […] In this assay, PK converts ADP produced by ADK and phosphoenolpyruvate (PEP) to pyruvate. Subsequently, LDH then converts pyruvate to lactate using the coenzyme NADH, with the conversion monitored at 340 nm. The reaction was conducted in 50 mM Tris–HCl buffer at pH 7.5, containing 50 mM KCl, 6 mM MgCl2, 300 µM PEP, 200 µM NADH, 10 mM ATP, 2 U of PK, and 2.5 U of LDH, using various nucleoside substrates. Kinetic constants were determined using GraphPad Prism 8.0 software (www.graphpad.com). Each measurement was performed six times using repetitive purified enzymes. […] The reaction mixture comprised 50 mM Tris–HCl pH 7.5, 5 mM MgCl2, 0.5 mM DTT, 30 mM NaF, 5 mM ATP, 40 µM substrate, and 2–150 ng of purified ADK, depending on the isoform. The reaction was incubated at 30 °C for up to 1 h.
Chain of ZmADK3 (A0A1D6E5Z5 entry or part of it): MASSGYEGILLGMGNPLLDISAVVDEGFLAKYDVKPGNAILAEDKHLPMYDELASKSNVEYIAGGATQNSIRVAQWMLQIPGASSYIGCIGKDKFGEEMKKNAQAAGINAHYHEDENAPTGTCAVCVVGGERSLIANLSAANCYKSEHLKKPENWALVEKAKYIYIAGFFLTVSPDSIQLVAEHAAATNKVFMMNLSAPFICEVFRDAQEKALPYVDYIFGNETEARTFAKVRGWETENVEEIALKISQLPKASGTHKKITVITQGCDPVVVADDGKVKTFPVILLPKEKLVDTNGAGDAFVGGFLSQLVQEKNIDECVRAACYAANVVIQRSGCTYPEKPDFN

For a further experiment, the system named is rabbit ADK. Also noted: method as in Miller et al., 1979a. The conditions noted are these: ref Miller et al., 1979a; cited from earlier work.
Experiment [4] deals with T2, PpADK1. The experiment in a line: ADK activity, coupled reaction with PK and LDH. The conditions noted are these: 100 µM substrate, 10 mM ATP, pH 7.5, 30 °C. Type of experiment: biochemical, Physcomitrella patens. The protocol: (§3) Substrate analogs were purchased from Sigma-Aldrich (www.sigmaaldrich.com). The ADK activity was measured spectrophotometrically on an Agilent 8453 UV-Vis spectrophotometer (www.agilent.com) at 30 °C using a coupled reaction with pyruvate kinase (PK) and lactate dehydrogenase (LDH) (www.sigmaaldrich.com) ([Blondin et al., 1994]). In this assay, PK converts ADP produced by ADK and phosphoenolpyruvate (PEP) to pyruvate. Subsequently, LDH then converts pyruvate to lactate using the coenzyme NADH, with the conversion monitored at 340 nm. The reaction was conducted in 50 mM Tris–HCl buffer at pH 7.5, containing 50 mM KCl, 6 mM MgCl2, 300 µM PEP, 200 µM NADH, 10 mM ATP, 2 U of PK, and 2.5 U of LDH, using various nucleoside substrates. Kinetic constants were determined using GraphPad Prism 8.0 software (www.graphpad.com). Each measurement was performed six times using repetitive purified enzymes. The activities of all five ADKs were also measured by HPLC ([Moffatt et al., 1991]). The reaction mixture comprised 50 mM Tris–HCl pH 7.5, 5 mM MgCl2, 0.5 mM DTT, 30 mM NaF, 5 mM ATP, 40 µM substrate, and 2–150 ng of purified ADK, depending on the isoform. The reaction was incubated at 30 °C for up to 1 h. […] Similarly, the conversion of cytokinin ribosides to monophosphates was followed on a LiChrosphere 60 RP-Select B (5 µm) LiChroCART column 125-4 column equilibrated with 10 mM triethylamine at pH 5.4 plus 10% methanol, and stepwise eluted with 100% methanol.

In the next experiment the target is ZmADK1 (Zea mays, UniProt K7UH13). Nature of the experiment: ADK activity, coupled reaction with PK and LDH. The conditions noted are these: 10 mM ATP, pH 7.5, 30 °C. The protocol:
as §3

Another experiment concerns the target PpADK2 (Physcomitrium patens, UniProt A9RF27). Nature of the experiment: ADK activity, coupled reaction with PK and LDH. The settings on record: 10 mM ATP, pH 7.5, 30 °C. As to the method:
as §3

Experiment [5] addresses T1, ZmADK2. Nature of the experiment: ADK activity, coupled reaction with PK and LDH. Type of experiment: biochemical. The settings on record: pH 7.5. The protocol:
as §3

As a reminder, the Kd is the equilibrium constant for the complex coming apart. As a reminder, the Km is the substrate concentration at which the rate is half of its maximum.

Where two headings read alike, the source gives them in different places.

Chain of PpADK2 (A9RF27 entry or part of it): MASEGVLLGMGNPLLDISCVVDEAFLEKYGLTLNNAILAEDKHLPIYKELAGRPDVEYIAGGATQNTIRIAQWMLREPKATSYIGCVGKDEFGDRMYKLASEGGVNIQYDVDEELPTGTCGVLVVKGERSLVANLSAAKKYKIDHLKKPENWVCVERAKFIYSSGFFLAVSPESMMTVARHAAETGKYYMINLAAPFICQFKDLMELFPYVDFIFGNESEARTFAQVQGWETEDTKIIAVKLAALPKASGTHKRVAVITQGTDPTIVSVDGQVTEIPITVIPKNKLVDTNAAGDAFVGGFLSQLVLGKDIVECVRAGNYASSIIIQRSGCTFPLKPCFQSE
T1 sequence (B4FFH8 1-342 T4S): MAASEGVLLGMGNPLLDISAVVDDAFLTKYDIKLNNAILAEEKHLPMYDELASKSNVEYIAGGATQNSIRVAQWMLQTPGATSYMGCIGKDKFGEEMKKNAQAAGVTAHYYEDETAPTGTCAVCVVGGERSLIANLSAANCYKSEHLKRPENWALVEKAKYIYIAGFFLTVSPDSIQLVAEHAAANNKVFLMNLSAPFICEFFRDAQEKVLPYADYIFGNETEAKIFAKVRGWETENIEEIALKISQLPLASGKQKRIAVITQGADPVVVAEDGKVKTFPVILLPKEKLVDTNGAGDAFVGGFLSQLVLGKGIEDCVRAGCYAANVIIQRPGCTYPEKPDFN
Chain of ZmADK1 (K7UH13 entry or part of it): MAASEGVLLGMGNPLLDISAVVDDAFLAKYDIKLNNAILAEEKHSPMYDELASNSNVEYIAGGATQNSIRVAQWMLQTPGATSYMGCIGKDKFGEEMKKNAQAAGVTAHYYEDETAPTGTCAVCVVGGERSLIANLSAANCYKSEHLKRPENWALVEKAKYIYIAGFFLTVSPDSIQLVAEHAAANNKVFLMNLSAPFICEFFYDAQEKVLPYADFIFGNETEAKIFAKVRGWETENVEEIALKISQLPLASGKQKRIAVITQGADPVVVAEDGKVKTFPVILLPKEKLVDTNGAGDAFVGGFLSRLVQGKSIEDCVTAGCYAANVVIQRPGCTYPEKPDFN
Chain of ZmADK3 N222A variant (A0A1D6E5Z5 entry or part of it N222A): as the sequence (A0A1D6E5Z5 entry or part of it D19A) above, with A18D, N221A counted along it
Chain of WT ZmADK3 (A0A1D6E5Z5 2-344): as the sequence (A0A1D6E5Z5 entry or part of it D19A) above, with A18D counted along it
Chain of ZmADK3 R132A variant (A0A1D6E5Z5 entry or part of it R132A): as the sequence (A0A1D6E5Z5 entry or part of it D19A) above, with A18D, R131A counted along it
Chain of ZmADK3 N295A variant (A0A1D6E5Z5 entry or part of it N295A): as the sequence (A0A1D6E5Z5 entry or part of it D19A) above, with A18D, N294A counted along it

`Nc1ncnc2c1ncn2[C@@H]1O[C@H](COP(=O)(O)OP(=O)(O)OP(=O)(O)O)[C@@H](O)[C@H]1O` [ATP]: the Kd at ZmADK3 D19A variant worked out at 4.9 ± 1.5 mM; on ZmADK3 N295A variant it was 41.8 ± 10 mM; at ZmADK3 N222A variant (N222A, MST, read-out: KD ATP), 20.7 ± 4.4 mM; on ZmADK3 D299A variant it was 9.1 ± 2.1 mM; at ZmADK3 E225A variant (E225A, MST, read-out: KD ATP), 16 ± 4.5 mM; at ZmADK3 R132A variant, 8.5 ± 2.1 mM. Besides, the Kd on ZmADK2 [1] (read-out: KD) is 2.2 ± 0.62 mM; at PpADK1 [3] (50 mM HEPES pH 7.5, 1 mM MgCl2, read-out: KD), 2.9 ± 0.7 mM; at WT ZmADK3, 2.9 ± 1.1 mM. The “lower affinity for ATP compared with the WT” value on ZmADK3 N222A variant (N222A variant of ZmADK3) is 7 fold; at ZmADK3 E225A variant (E225A variant of ZmADK3), ~ 6 fold. For the same compound, the Km in experiment [2] is 300 to 400 µM. In addition, the “stabilizing effect on melting temperature (Tm)” value in the experiment on five plant ADKs was “up to 4 °C”.

As to `CC(C)=CCNc1ncnc2c1ncn2C1OC(CO)C(O)C1O` (stereo not drawn) [iPR, N ^6-isopentenyl adenosine], the Km is 4 to 12 µM with all five ADKs; 4.3 ± 0.4 µM at ZmADK3; 7 µM in the experiment on rabbit ADK; 8.5 ± 0.7 µM on ZmADK1; 4 ± 0.3 µM at PpADK2. For the same compound, the Specific activity on ZmADK3 (100 µM substrate) was 5.1±0.3 nmol s^–1 mg^–1; at PpADK1 [4] it was 0.93±0.11 nmol s^–1 mg^–1; on ZmADK1 (100 µM substrate), 2.8±0.3 nmol s^–1 mg^–1; at PpADK2 (100 µM substrate), 0.83±0.08 nmol s^–1 mg^–1; at ZmADK2 [5], 4.1±0.4 nmol s^–1 mg^–1. Moreover, the kcat amounted to 0.22±0.007 s^–1 on ZmADK3, 0.10±0.002 s^–1 on ZmADK1, 0.03±0.001 s^–1 at PpADK2 and 0.19±0.01 s^–1 on ZmADK2 [5]. Besides, the Kd stood at 0.0048 ± 0.0011 mM at ZmADK2 [1] (KD) and 0.0055 mM at PpADK1 [3] (KD, 50 mM HEPES pH 7.5, 1 mM MgCl2, first or only binding event). In addition, the “activity compared with Ado” value in the experiment on rabbit ADK is 69%.

Values taken from publication PMC12369479 (Journal of Experimental Botany, 2025).
